Tests used:
[1] = molecular target: T1, human MT1 receptor (Homo sapiens, UniProt P48039); assay: Activation of human MT1 receptor in receptor-expressing cells, intracellular Ca2+ by FLIPR; assay type: cell-based; settings: for EC50: HEK293EBNA1 cells stably expressing human MT1 and Gq/i chimeric G protein, Ca2+ FLIPR; for Emax: maximum reaction by ramelteon taken as 100%
T1 construct: expressed in transfected cells

[2] = molecular target: T2, human MT2 receptor (Homo sapiens, UniProt P49286); assay: Activation of human MT2 receptor in receptor-expressing cells, intracellular Ca2+ by FLIPR; assay type: cell-based; settings: for EC50: HEK293 cells stably expressing human MT2 and Gq/i chimeric G protein, Ca2+ FLIPR; for Emax: maximum reaction by ramelteon taken as 100%
T2 construct: expressed in transfected cells
T2 sequence (P49286 1-362): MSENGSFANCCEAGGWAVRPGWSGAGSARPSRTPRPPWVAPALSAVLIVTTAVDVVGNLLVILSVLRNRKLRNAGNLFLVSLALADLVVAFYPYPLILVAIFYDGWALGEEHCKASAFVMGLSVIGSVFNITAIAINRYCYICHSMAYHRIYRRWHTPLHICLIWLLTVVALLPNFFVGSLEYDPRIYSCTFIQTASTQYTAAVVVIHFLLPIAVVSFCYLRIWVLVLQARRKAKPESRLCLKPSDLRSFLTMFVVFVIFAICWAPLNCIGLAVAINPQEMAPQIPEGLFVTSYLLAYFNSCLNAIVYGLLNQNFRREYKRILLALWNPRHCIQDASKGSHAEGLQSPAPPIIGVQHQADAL

T1 sequence (P48039 whole entry): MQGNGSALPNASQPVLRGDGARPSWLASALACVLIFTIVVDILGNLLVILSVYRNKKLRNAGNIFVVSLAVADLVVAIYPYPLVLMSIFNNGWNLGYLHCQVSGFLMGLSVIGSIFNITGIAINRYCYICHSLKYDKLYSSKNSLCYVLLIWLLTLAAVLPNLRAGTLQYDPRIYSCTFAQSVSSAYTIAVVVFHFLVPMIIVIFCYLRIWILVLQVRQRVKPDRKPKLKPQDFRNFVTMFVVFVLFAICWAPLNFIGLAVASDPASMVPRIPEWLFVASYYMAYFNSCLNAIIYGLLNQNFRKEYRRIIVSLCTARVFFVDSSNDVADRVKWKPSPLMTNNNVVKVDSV

Row | EC50 [1] [nM] | Emax [1] [%] | EC50 [2] [nM] | Emax [2] [%] | SMILES
1 | 7.9 | 97 | 12 | 103 | Cn1ccc(OCCOc2ccc3[nH]cc(CCNC(=O)C(F)F)c3c2)n1 [Example 42]
2 | 5.3 | 110 | 7.1 | 104 | CCC(=O)NCCc1c[nH]c2cc(F)c(OCCOc3ccn(C)n3)cc12 [Example 43]
3 | 3.3 | 103 | 4.5 | 102 | Cn1ccc(OCCOc2cc3c(CCNC(=O)C(F)F)c[nH]c3cc2F)n1 [Example 44]
4 | 2.3 | 99 | 14 | 127 | CCC(=O)NCCc1c(C)[nH]c2cc(F)c(OCCOc3ccn(C)n3)cc12 [Example 45]
5 | 3.4 | 78 | 6.3 | 76 | CCC(=O)NCCc1c[nH]c2cc(F)c(OCCOc3ccc(OC)nc3)cc12 [Example 46]
6 | 9.8 | 124 | 41 | 145 | CNC(=O)NCCc1c(C)[nH]c2cc(F)c(OCCOc3ccn(C)n3)cc12 [Example 47]
7 | 8.4 | 92 | 56 | 106 | CNC(=O)NCCc1c(C)[nH]c2ccc(OCCOc3cnc(OC)c(F)c3)cc12 [Example 48]
8 | 5.6 | 102 | 11 | 119 | CC(=O)NCCc1c[nH]c2ccc(OCCOc3cncc(Br)c3)cc12 [Example 49]
9 | 8.5 | 89 | 6.4 | 111 | CNC(=O)NCCc1c[nH]c2ccc(OCCOc3cncc(Br)c3)cc12 [Example 50]
10 | 5.3 | 95 | 4.7 | 108 | CC(=O)NCCc1c[nH]c2ccc(OCCOc3ccnc(Cl)c3)cc12 [Example 51]
11 | 10 | 92 | 5.6 | 117 | CNC(=O)NCCc1c[nH]c2ccc(OCCOc3ccnc(Cl)c3)cc12 [Example 52]
12 | 1 | 112 | 4.8 | 99 | CNC(=O)NCCc1c[nH]c2ccc(OCCOc3cccc(OC)n3)cc12 [Example 53]
13 | 0.77 | 111 | 2.6 | 109 | COc1cccc(OCCOc2ccc3[nH]cc(CCNC(C)=O)c3c2)n1 [Example 54]
14 | 8 | 109 | 9.1 | 133 | CC(=O)NCCc1c[nH]c2ccc(OCCOc3cncc(Cl)c3)cc12 [Example 55]

Further lines, the molecule ahead of its results:

Row | SMILES | EC50 [1] [nM] | Emax [1] [%] | EC50 [2] [nM] | Emax [2] [%]
15 | CC(=O)NCCc1c[nH]c2ccc(OCCOc3ccn(C)n3)cc12 [Example 2, N-[2-(5-{2-[(1-methyl-1H-pyrazol-3-yl)oxy]ethoxy}-1H-indol-3-yl)ethyl]acetamide] | 7 | 125 | 17 | 125
16 | CC(=O)NCCc1c[nH]c2ccc(OCCOc3cnccn3)cc12 [Example 3, N-(2-{5-[2-(pyrazin-2-yloxy)ethoxy]-1H-indol-3-yl}ethyl)acetamide] | 9.9 | 94 | 51 | 127
17 | CCOC(=O)NCCOc1ccc2[nH]c(C)c(CCNC(C)=O)c2c1 [Example 12] | 7.7 | 96 | 18 | 93
18 | COc1ccc(OCCOc2cc3c(CCNC(C)=O)c(C)[nH]c3cc2F)cn1 [Example 16] | 10 | 100 | 100 | 82
19 | COC(=O)NCCOc1ccc2[nH]c(C)c(CCNC(C)=O)c2c1 [Example 17] | 5.9 | 84 | 33 | 91
20 | COC(=O)NCCOc1cc2c(CCNC(C)=O)c(C)[nH]c2cc1F [Example 19] | 5.7 | 94 | 17 | 91
21 | CC(=O)NCCc1c[nH]c2ccc(OCCc3csc(C)n3)cc12 [Example 20] | 4.1 | 115 | 7.7 | 119
22 | CNC(=O)NCCc1c[nH]c2ccc(OCCc3nc(C)sc3C)cc12 [Example 21] | 7 | 103 | 44 | 59
23 | CC(=O)NCCc1c(C)[nH]c2cc(F)c(OCCn3ccc(C)n3)cc12 [Example 22] | 7.3 | 105 | 8.7 | 95
24 | CC(=O)NCCc1c[nH]c2cc(F)c(OCCn3cc(Cl)cn3)cc12 [Example 24] | 13 | 99 | 18 | 71
25 | CC(=O)NCCc1c[nH]c2cc(F)c(OCCc3csc(C)n3)cc12 [Example 25] | 1.5 | 105 | 2.9 | 96
26 | CNC(=O)NCCc1c[nH]c2cc(F)c(OCCc3csc(C)n3)cc12 [Example 26] | 8.8 | 97 | 9.8 | 106
27 | CCc1ccn(CCOc2cc3c(CCNC(C)=O)c[nH]c3cc2F)n1 [Example 27] | 8.7 | 83 | 10 | 82
28 | COc1ccc(OCCOc2cc3c(CCNC(C)=O)c[nH]c3cc2F)cn1 [Example 28] | 6.8 | 119 | 35 | 62
29 | CC(=O)NCCc1c(C)[nH]c2ccc(OCCn3ccc(C)n3)cc12 [Example 29] | 10 | 100 | 24 | 112
30 | CNC(=O)NCCc1c(C)[nH]c2ccc(OCCn3ccc(C)n3)cc12 [Example 30] | 4.8 | 106 | 15 | 110
31 | COc1ncc(OCCOc2ccc3[nH]cc(CCNC(C)=O)c3c2)cc1F [Example 32] | 3.4 | 96 | 50 | 66
32 | COc1ncc(OCCOc2cc3c(CCNC(C)=O)c[nH]c3cc2F)cc1F [Example 33] | 4.3 | 103 | 60 | 53
33 | CC(=O)NCC(C)c1c[nH]c2ccc(OCCOc3ccn(C)n3)cc12 (centres unmarked) [Example 34] | 4.3 | 93 | 10 | 125
34 | CC(=O)NCC(C)(C)c1c[nH]c2cc(F)c(OCCOc3ccn(C)n3)cc12 [Example 35] | 3.7 | 94 | 8.3 | 114
35 | CC(=O)NCC(C)(C)c1c[nH]c2cc(F)c(OCCn3ccc(C)n3)cc12 [Example 36] | 6 | 101 | 15 | 96
36 | CC(=O)NC[C@H](C)c1c[nH]c2cc(F)c(OCCn3ccc(C)n3)cc12 [Example 39] | 7.2 | 104 | 51 | 49
37 | COc1ccc(OCCOc2cc3c([C@@H](C)CNC(C)=O)c[nH]c3cc2F)cn1 [Example 40] | 6.3 | 81 | 160 | 42
38 | CCCC(=O)NCCc1c[nH]c2ccc(OCCOc3ccn(C)n3)cc12 [Example 41] | 11 | 75 | 26 | 93
